In patent US12637461B2, “Compounds for the activation of AMPK” (PFIZER INC., priority 2022, dated 2026):

Target: T1, human AMPK α2β2γ3 (Homo sapiens, UniProt O43741+P54646+Q9UGI9)
T1 construct: expressed in transfected cells; host or cells: HEK293AD cells, MaxCyte bulk electroporation
Test: Primary cellular assay: γ3 associated phospho-Thr172 AMPK detection (custom pAMPK Surefire AlphaLISA) in α2β2γ3 bulk transiently transfected HEK293 cells
Assay type: cell-based
Conditions: activation of human AMPK α2β2γ3 (γ3 pThr172 AMPK signal) in transiently transfected HEK293 cells, 20 minutes compound incubation; for Emax: 20 min, read-out: Assay GMean Asy. Max (%); for Emax / Assay GMean Asy. Max (%): geometric mean of the asymptotic max; for EC50: geometric mean EC50, read-out: Assay GMean EC50
Procedure: Primary Cellular Assay—γ3 Associated Phospho-Thr172 AMPK Detection in α2β2γ3 Bulk Transiently Transfected HEK293 Cells
The cellular potencies of the compounds were evaluated using a custom pAMPK Surefire AlphaLISA designed to assess γ3 associated phospho-Thr172 AMPK and modulation by small molecules in AMPK α2β2γ3 transiently transfected HEK293 cells.
A pAMPK Surefire AlphaLISA (PE-ASLU-PAMPK) assay available through Perkin Elmer was modified to selectively assess γ3 pThr172 AMPK content (as opposed to total pThr172 AMPK) by labeling a γ3 antibody with a CaptSure™ tag and substituting it for the total α1c/α2 AMPK labeled antibodies in the kit. In the modified assay, the overall abundance of γ3 AMPK is recognized by the CaptSure γ3 antibody and the phosphorylated AMPK is recognized by biotinylated pThr172 antibody. Subsequent reactivity with streptavitin donor beads and anti CaptSure conjugated acceptor beads brings the molecules into close proximity. Upon excitation at 680 nm, the donor bead converts ambient oxygen to a more excited singlet state which reacts with the acceptor bead and emits light at 520 to 620 nm. The intensity of the signal is proportional to the level of γ3 associated pThr172 AMPK phosphorylation.
In short, AMPK-α2+β2+γ3 MaxCyte bulk-transfected HEK293AD cells were thawed in growth media (DMEM High glucose+10% FBS) in a collagen-coated T150 flask and the cells were allowed to adhere and grow overnight in a 37° C. incubator. The following day, the cells were harvested and resuspended in plating medium (DMEM Low glucose+10% FBS) at a concentration of 100,000 cells per mL and 50 μL of this cell suspension was added to all wells of a 384-well plate using a Multidrop Combi. The cells were allowed to adhere and grow for 2 days in a 37° C. incubator. On assay day, compounds were diluted in 100% dimethyl sulfoxide (DMSO) in a 11 dose, half log dilution scheme and spotted in the cell plates at 1000× the final concentration. Compound incubations were performed in plating media for 20 minutes. Cells were washed with PBS, lysed and the signal was generated by subsequent additions of RB1 reagent from the kit, 1:1000 CaptSure γ3 labeled antibody in 1× immunoassay buffer, Anti-CaptSure acceptor beads and Streptavitin donor beads at final concentration of […]. The γ3 pThr172 AMPK signal was developed using EnVision™ multilabel reader (Perkin Elmer) using Alphascreen settings. The fluorescence emission was used to calculate the % effect relative to the HPE (30 μM) and ZPE (DMSO). EC50 curves were generated with the ActivityBase software using the XLfit model 205 to determine EC50 and Emax values.
For screening purposes, bulk AMPK-α2+β2+γ3 MaxCyte bulk transfection into HEK293AD cells were generated to support SAR screening as follows.
HEK293AD cells were seeded into 10 flasks at 2.7×10^7 cells per flask. The following day 12 mL of Trypl E dissociation reagent were added to each flask to lift the cells and the cells were then spun at 300×g for 5 minutes. Cells were washed once in MaxCyte EP buffer and then resuspended in MaxCyte EP buffer at 1×10^8 cells per mL. For transfection, 500×10^6 cells in 500 μl MaxCyte EP buffer were placed in a CL1.1 Processing Assembly (electroporation cell) with 1 mg/mL ([…]) of each of the plasmids pcDNA3.1(+)-human AMPK alpha 2, pcDNA3.1(+)-human AMPK beta 2 and pcDNA3.1(+)-human AMPK gamma 3 and the electroporation was carried out on the MaxCyte STX using the HEK293 electroporation protocol. Following electroporation, cells were transferred to a T175 flask containing growth medium (DMEM High glucose+10% FBS) and allowed to recover for 25 minutes, then the cells were resuspended to final volume of 900 mL and distributed into 6XT175 flasks and allowed to adhere and grow overnight in a 37° C. incubator. […]

T1 sequence (P54646 whole entry): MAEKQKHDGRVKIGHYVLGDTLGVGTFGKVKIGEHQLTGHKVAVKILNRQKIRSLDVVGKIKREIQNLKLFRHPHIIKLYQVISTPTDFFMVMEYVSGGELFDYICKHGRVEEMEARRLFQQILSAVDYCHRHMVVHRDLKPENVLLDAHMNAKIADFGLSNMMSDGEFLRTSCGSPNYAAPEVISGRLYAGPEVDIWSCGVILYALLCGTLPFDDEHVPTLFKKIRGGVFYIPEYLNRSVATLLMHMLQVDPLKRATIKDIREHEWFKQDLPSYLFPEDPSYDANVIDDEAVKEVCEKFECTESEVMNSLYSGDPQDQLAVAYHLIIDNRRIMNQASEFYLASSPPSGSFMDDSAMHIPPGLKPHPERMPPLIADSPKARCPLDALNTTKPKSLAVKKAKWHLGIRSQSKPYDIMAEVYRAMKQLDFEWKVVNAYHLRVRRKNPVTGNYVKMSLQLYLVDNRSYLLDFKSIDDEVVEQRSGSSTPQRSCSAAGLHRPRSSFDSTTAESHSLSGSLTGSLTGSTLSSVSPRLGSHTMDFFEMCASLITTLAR
T1 sequence (O43741 whole entry): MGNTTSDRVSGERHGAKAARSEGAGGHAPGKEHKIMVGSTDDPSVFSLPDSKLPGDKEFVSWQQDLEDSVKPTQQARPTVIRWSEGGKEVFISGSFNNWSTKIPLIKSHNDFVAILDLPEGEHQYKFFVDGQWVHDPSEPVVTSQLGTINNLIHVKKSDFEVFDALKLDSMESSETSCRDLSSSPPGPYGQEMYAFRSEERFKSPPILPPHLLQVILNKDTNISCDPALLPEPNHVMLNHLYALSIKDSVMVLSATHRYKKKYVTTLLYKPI
T1 sequence (Q9UGI9 whole entry): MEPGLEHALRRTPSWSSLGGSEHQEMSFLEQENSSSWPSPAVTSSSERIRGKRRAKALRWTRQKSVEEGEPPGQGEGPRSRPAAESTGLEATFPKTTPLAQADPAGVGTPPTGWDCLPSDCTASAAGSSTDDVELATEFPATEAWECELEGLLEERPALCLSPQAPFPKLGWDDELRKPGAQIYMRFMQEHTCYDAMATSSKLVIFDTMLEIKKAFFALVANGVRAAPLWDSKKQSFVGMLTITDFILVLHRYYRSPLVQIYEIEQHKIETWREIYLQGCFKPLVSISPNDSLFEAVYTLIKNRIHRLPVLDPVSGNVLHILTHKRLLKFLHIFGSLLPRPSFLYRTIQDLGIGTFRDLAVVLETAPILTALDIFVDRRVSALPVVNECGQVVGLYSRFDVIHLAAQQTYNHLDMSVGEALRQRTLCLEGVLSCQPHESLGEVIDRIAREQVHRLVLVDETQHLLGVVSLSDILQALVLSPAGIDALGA

Row | Emax [%] | EC50 [nM] | Assay GMean Asy. Max (%) | SMILES
1 | 134 | 52.1 | – | COCCN(C(=O)CN1CC(Nc2ncc3c(c2F)[C@@](C)(c2cccc(Cl)c2F)CN(c2nn(C)cc2F)C3=O)C1)C1CC1 [compound 75, 2-(3-{[(5R)-5-(3-chloro-2-fluorophenyl)-4-fluoro-7-(4-fluoro-1-methyl-1H-pyrazol-3-yl)-5-methyl-8-oxo-5,6,7,8-tetrahydro-2,7-naphthyridin-3-yl]amino}azetidin-1-yl)-N-cyclopropyl-N-(2-methoxyethyl)acetamide]
2 | – | 66.4 | 100 | Cn1cc(F)c(N2C[C@](C)(c3cccc(Cl)c3F)c3c(cnc(NC4CN(C(=O)C(O)CC(F)(F)F)C4)c3F)C2=O)n1 (single isomer, unassigned) [compound 45]
3 | 80.7 | 62.3 | – | Cn1cc(F)c(N2C[C@](C)(c3cccc(Cl)c3F)c3c(cnc(NC4CN(C(=O)[C@@H]5C[C@H]5F)C4)c3F)C2=O)n1 [compound 78, (4R)-4-(3-chloro-2-fluorophenyl)-5-fluoro-6-({1-[(1S,2R)-2-fluorocyclopropane-1-carbonyl]azetidin-3-yl}amino)-2-(4-fluoro-1-methyl-1H-pyrazol-3-yl)-4-methyl-3,4-dihydro-2,7-naphthyridin-1(2H)-one]
4 | 57.5 | 65.3 | – | C[C@]1(c2cccc(Cl)c2F)CN(c2cc(N)ccn2)C(=O)c2cnc(NC3CN(C(=O)[C@@H]4C[C@@H]4F)C3)c(F)c21 [compound 93, (4R)-2-(4-aminopyridin-2-yl)-4-(3-chloro-2-fluorophenyl)-5-fluoro-6-({1-[(1S,2S)-2-fluorocyclopropane-1-carbonyl]azetidin-3-yl}amino)-4-methyl-3,4-dihydro-2,7-naphthyridin-1(2H)-one]
5 | 75.4 | 759 | – | C[C@]1(c2cccc(Cl)c2F)CN(c2ccc([C@H]3COCCN3)cn2)C(=O)c2cnc(NC3CN(C(=O)c4cccnn4)C3)c(F)c21 (single isomer, unassigned) [Example 16]
6 | 139 | 79.5 | – | CN1CCC(C(=O)N2CC[C@@H](Nc3ncc4c(c3F)C(C)(c3cccc(Cl)c3F)CN(c3ncccc3F)C4=O)C2)CC1 (single isomer, unassigned) [Example 24]
7 | 123 | > 1060 | – | CC1(c2cccc(Cl)c2F)CN(c2ncccc2F)C(=O)c2cnc(NC3CN(C(=O)[C@@H]4C[C@@H]4F)C3)nc21 (single isomer, unassigned) [compound 81]
8 | – | 27.2 | 119 | Cn1cc(F)c(N2CC(C)(c3cccc(Cl)c3F)c3c(ccc(NC4CN(C5CCCNC5=O)C4)c3F)C2=O)n1 (centres unmarked) [Example 35, 4-(3-Chloro-2-fluorophenyl)-5-fluoro-2-(4-fluoro-1-methyl-1H-pyrazol-3-yl)-4-methyl-6-{[1-(2-oxopiperidin-3-γ1)azetidin-3-yl]amino}-3,4-dihydroisoquinolin-1(2H)-one]
9 | 64.9 | 27.7 | – | C[C@]1(c2cccc(Cl)c2F)CN(c2ccccn2)C(=O)c2cnc(NC3CN(C(=O)[C@@H]4C[C@@H]4F)C3)c(F)c21 [Example 5, (4R)-4-(3-chloro-2-fluorophenyl)-5-fluoro-6-({1-[(1S,2S)-2-fluorocyclopropane-1-carbonyl]azetidin-3-yl}amino)-4-methyl-2-(pyridin-2-yl)-3,4-dihydro-2,7-naphthyridin-1(2H)-one]
10 | 63.2 | 266 | – | CN(C)C(=O)CN1CCC(Nc2ncc3c(c2F)C(C)(c2cccc(Cl)c2F)CN(c2nn(C)cc2F)C3=O)C1 [compound 110, 2-[(3R)-3-{[5-(3-chloro-2-fluorophenyl)-4-fluoro-7-(4-fluoro-1-methyl-1H-pyrazol-3-yl)-5-methyl-8-oxo-5,6,7,8-tetrahydro-2,7-naphthyridin-3-yl]amino}pyrrolidin-1-yl]-N,N-dimethylacetamide, from P9 (DIAST-2)]
11 | 40.1 | 76.8 | – | CNC(=O)CN1CC(Nc2ncc3c(c2F)[C@@](C)(c2cccc(Cl)c2F)CN(c2nn(C)cc2F)C3=O)C1 [compound 67, 2-(3-{[(5R)-5-(3-chloro-2-fluorophenyl)-4-fluoro-7-(4-fluoro-1-methyl-1H-pyrazol-3-yl)-5-methyl-8-oxo-5,6,7,8-tetrahydro-2,7-naphthyridin-3-yl]amino}azetidin-1-yl)-N-methylacetamide]
12 | 88.8 | 29.8 | – | CCN(C)C(=O)CN1CC(Nc2ncc3c(c2F)[C@@](C)(c2cccc(Cl)c2F)CN(c2nn(C)cc2F)C3=O)C1 [compound 66, 2-(3-{[(5R)-5-(3-chloro-2-fluorophenyl)-4-fluoro-7-(4-fluoro-1-methyl-1H-pyrazol-3-yl)-5-methyl-8-oxo-5,6,7,8-tetrahydro-2,7-naphthyridin-3-yl]amino}azetidin-1-yl)-N-ethyl-N-methylacetamide]
13 | 74.6 | 113 | – | Cn1cncc1C(=O)N1CC(Nc2ncc3c(c2F)[C@@](C)(c2cccc(Cl)c2F)CN(c2ccc(CO)cn2)C3=O)C1 [compound 58, (4R)-4-(3-chloro-2-fluorophenyl)-5-fluoro-2-[5-(hydroxymethyl)pyridin-2-yl]-4-methyl-6-{[1-(1-methyl-1H-imidazole-5-carbonyl)azetidin-3-yl]amino}-3,4-dihydro-2,7-naphthyridin-1(2H)-one]
14 | 96.5 | 149 | – | Cn1cc(F)c(N2CC(C)(c3cccc(Cl)c3F)c3c(ccc(NC4CN(C5CCCNC5=O)C4)c3F)C2=O)n1 (centres unmarked) [Example 36, 4-(3-Chloro-2-fluorophenyl)-5-fluoro-2-(4-fluoro-1-methyl-1H-pyrazol-3-yl)-4-methyl-6-{[1-(2-oxopiperidin-3-γ1)azetidin-3-yl]amino}-3,4-dihydroisoquinolin-1(2H)-one]
15 | 56 | 112 | – | Cn1cnc(N2C[C@](C)(c3cccc(Cl)c3F)c3c(cnc(NC4CN(C(=O)C(C)(C)O)C4)c3F)C2=O)c1 [Example 3, (4R)-4-(3-Chloro-2-fluorophenyl)-5-fluoro-6-{[1-(2-hydroxy-2-methylpropanoyl)azetidin-3-yl]amino}-4-methyl-2-(1-methyl-1H-imidazol-4-yl)-3,4-dihydro-2,7-naphthyridin-1(2H)-one]
16 | – | 264 | 105 | COCC(C)(O)C(=O)N1CC(Nc2ncc3c(c2F)C(C)(c2cccc(Cl)c2F)CN(c2nn(C)cc2F)C3=O)C1 (single isomer, unassigned) [compound 47]
17 | – | 21.3 | 89.6 | Cn1cc(F)c(N2C[C@](C)(c3cccc(Cl)c3F)c3c(cnc(NC4CN(C(=O)C(C)(O)C5CC5)C4)c3F)C2=O)n1 (single isomer, unassigned) [Example 10]
18 | 178 | 740 | – | Cn1cc(F)c(N2CC(C)(c3cccc(Cl)c3F)c3nc(NC4CN(C(=O)[C@@H]5C[C@@H]5F)C4)ncc3C2=O)n1 (single isomer, unassigned) [Example 30]
19 | – | 172 | 77.4 | Cn1cc(F)c(N2C[C@](C)(c3cccc(Cl)c3F)c3c(cnc(NC4CN(C(=O)C(O)C5CC5)C4)c3F)C2=O)n1 (single isomer, unassigned) [compound 43]
